# Results published in BindingDB's records for doi:10.7270/Q2WD3Z10 (Burnham Center For Chemical Genomics, 2010).
# Molecular target: NACHT, LRR and PYD domains-containing protein 3 (Homo sapiens, UniProt Q96P20)
# Assay: NALP3 inhibitors in yeast, dose response, luminescent (AID 488799)
# NACHT, LRR and PYD domains-containing protein 3, sequence (Q96P20 whole entry, the tested form may be a part): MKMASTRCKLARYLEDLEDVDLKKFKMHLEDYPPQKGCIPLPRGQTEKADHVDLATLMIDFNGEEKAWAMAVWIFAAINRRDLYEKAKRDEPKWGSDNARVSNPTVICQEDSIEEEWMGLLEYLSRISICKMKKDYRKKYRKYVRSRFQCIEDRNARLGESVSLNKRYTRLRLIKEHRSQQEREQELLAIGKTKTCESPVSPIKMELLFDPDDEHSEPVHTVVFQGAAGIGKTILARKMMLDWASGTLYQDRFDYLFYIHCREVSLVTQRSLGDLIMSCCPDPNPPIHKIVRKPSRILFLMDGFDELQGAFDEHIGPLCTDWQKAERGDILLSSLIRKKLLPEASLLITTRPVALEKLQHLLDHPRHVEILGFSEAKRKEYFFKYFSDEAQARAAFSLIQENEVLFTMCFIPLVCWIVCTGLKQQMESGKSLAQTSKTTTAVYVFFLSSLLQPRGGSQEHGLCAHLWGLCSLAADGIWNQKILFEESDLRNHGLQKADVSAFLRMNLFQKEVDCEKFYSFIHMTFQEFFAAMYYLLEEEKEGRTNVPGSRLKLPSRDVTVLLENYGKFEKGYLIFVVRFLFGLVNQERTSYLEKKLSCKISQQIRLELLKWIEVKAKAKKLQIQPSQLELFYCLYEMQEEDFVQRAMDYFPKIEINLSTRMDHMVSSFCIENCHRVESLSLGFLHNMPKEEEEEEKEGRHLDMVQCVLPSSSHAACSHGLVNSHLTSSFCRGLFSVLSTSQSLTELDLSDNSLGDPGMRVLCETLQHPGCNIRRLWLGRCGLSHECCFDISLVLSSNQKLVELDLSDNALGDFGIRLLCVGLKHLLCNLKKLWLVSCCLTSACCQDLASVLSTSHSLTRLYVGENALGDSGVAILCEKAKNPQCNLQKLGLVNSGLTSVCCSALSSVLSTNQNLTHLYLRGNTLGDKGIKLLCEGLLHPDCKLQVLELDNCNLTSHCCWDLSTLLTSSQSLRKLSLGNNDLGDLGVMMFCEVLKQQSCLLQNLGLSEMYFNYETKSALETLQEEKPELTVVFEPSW
row,SMILES,IC50
1,O=C(NCCC1=CCCCC1)c1c(O)n2ccsc2nc1=O [SMR000811826],3.8 µM
2,"O=C1C=CC(/N=N/c2ccc([N+](=O)[O-])cc2Cl)=CC1C(=O)Nc1cccc(Cl)c1 (stereo unspecified) [(3Z)-3-[(2-chloro-4-nitrophenyl)hydrazinylidene]-N-(3-chlorophenyl)-6-oxocyclohexa-1,4-diene-1-carboxamide]",1.34 µM
3,Cc1csc2nc(=O)c(C(=O)NCCC3=CCCCC3)c(O)n12,4.07 µM
4,"C=CCc1c(C)nc(C)nc1N=NCc1ccccc1O [2-[(5-Allyl-2,6-dimethyl-pyrimidin-4-yl)-hydrazonomethyl]-phenol]",45.5 µM
5,CCCCCC(=O)N1CCN(CCNC=C2C(=O)CC(c3ccco3)CC2=O)CC1 (stereo unspecified) [SMR000019406],7.3 µM
6,"O=C(NCCCc1ccccc1)c1c(O)n2ccsc2nc1=O [5-oxidanyl-7-oxidanylidene-N-(3-phenylpropyl)-[1,3]thiazolo[3,2-a]pyrimidine-6-carboxamide]",9.61 µM
